Legend:
Type in all cases: functional
HCC1954 [1] = assay: Cytotoxicity against human HCC1954 cells at 10 uM by MTT assay
T47D [2] = assay: Cytotoxicity against human T47D cells at 5 uM by MTT assay
MCF7 [3] = assay: Cytotoxicity against human MCF7 cells at 10 uM by MTT assay
MCF7 [4] = assay: Cytotoxicity against human MCF7 cells at 5 uM by MTT assay
MDA-MB-231 [5] = assay: Cytotoxicity against human MDA-MB-231 cells at 5 uM by MTT assay
HCC1954 [6] = assay: Cytotoxicity against human HCC1954 cells at 5 uM by MTT assay
MDA-MB-231 [7] = assay: Cytotoxicity against human MDA-MB-231 cells at 10 uM by MTT assay
T47D [8] = assay: Cytotoxicity against human T47D cells at 10 uM by MTT assay

Measured: Activity

COc1cc(C(=O)Nc2cc3ncc(Sc4ccccc4)nc3nc2C)cc(OC)c1OC
<50%: all assays above

Cc1nc2nccnc2cc1NC(=O)CN(C)C
<50%: all assays above

Cc1nc2nc(Sc3ccccc3)cnc2cc1NC(=O)Nc1ccc(F)c([N+](=O)[O-])c1
<50%: all assays above

Cc1nc2nccnc2cc1NC(=O)c1cccc(C(F)(F)F)c1
<50%: all assays above

Cc1nc2nc(Sc3ccccc3)cnc2cc1N
<50%: all assays above

Cc1ccc(C(=O)Nc2cc3nccnc3nc2C)cc1
<50%: all assays above

CSc1ccc(NC(=O)Nc2cc3ncc(Sc4ccccc4)nc3nc2C)cc1
<50%: all assays above

Cc1nc2nc(Sc3ccccc3)cnc2cc1NC(=O)c1cccc(C(F)(F)F)c1
<50%: all assays above

Cc1nc2nc(Sc3ccccc3)cnc2cc1NC(=O)c1ccc([N+](=O)[O-])cc1
<50%: all assays above

COc1cc(C(=O)Nc2cc3nccnc3nc2C)cc(OC)c1OC
<50%: all assays above

Cc1nc2nccnc2cc1NC(=O)CN1CCN(C)CC1
<50%: all assays above

Cc1nc2nccnc2cc1NC(=O)c1ccc([N+](=O)[O-])cc1
<50%: all assays above

Cc1nc2nc(Sc3ccccc3)cnc2cc1NC(=O)c1ccccc1C(F)(F)F
<50%: all assays above

Cc1nc2nc(Sc3ccccc3)cnc2cc1NC(=O)CN1CCN(C)CC1
<50%: all assays above

Cc1nc2nc(Sc3ccccc3)cnc2cc1NC(=O)Nc1cccc(C(F)(F)F)c1
<50%: all assays above

Cc1nc2nc(Sc3ccccc3)cnc2cc1NC(=O)CN(C)C
<50%: all assays above

Cc1ccc(C(=O)Nc2cc3ncc(Sc4ccccc4)nc3nc2C)cc1
<50%: all assays above

Cc1nc2nc(Sc3ccccc3)cnc2cc1NC(=O)Nc1ccc(F)c(Cl)c1
<50%: all assays above

Cc1nc2nccnc2cc1NC(=O)c1ccccc1
<50%: all assays above

Source: ChEMBL document CHEMBL4000195, “Design and synthesis of novel 7-aminosubstituted pyrido[2,3-b]pyrazines exhibiting anti-breast cancer activity” (Eur J Med Chem, 2017)
